Data published in ChEMBL document CHEMBL1201862, “PubChem BioAssay data set” (2004).
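96-well plates; 48 h exposure; 5 concentrations. Endpoints by linear interpolation between flanking doses. Not reached: highest tested concentration assigned. Here, GI50 denotes the concentration required for 50% inhibition of growth.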 Active and inactive are the calls of the source. No stated cut-off is given here; in the data, active = GI50 up to about 1.1 µM and inactive = higher.

Legend:
Assay in all cases: NCI tumour cell line growth inhibition, 48 h
[1] = system: MDA-N
[2] = system: NCI-H460
[3] = system: OVCAR-3
[4] = system: CCRF-CEM
[5] = system: SK-OV-3
[6] = system: K562
[7] = system: UO-31
[8] = system: HCT-116
[9] = system: IGROV-1
[10] = system: SF-539
[11] = system: UACC-257
[12] = system: KM12
[13] = system: MCF7
[14] = system: U-251
[15] = system: PC-3
[16] = system: T47D
[17] = system: SK-MEL-28
[18] = system: KM-20L2
[19] = system: SNB-78
[20] = system: XF498

Measured: GI50

O=c1ccc2nc3ccc(O)cc3oc-2c1
inactive: [1] 1.91 µM | [2] 12 µM | [3] 10.5 µM | [4] 34 µM | [5] > 100 µM | [6] 6.1 µM | [7] 5.75 µM | [8] 16.4 µM | [9] 39.5 µM | [10] 4.7 µM | [11] 8.69 µM | [12] 5.6 µM | [13] 5.07 µM | [14] 26.8 µM | [15] 4.69 µM | [16] > 100 µM

CCOC(=O)C1=C(Nc2ccccc2)SCC1=O
inactive: [2] > 100 µM | [3] > 100 µM | [5] > 100 µM | [6] > 100 µM | [7] > 100 µM | [17] > 100 µM | [18] > 100 µM | [8] > 100 µM | [9] > 100 µM | [10] > 100 µM | [11] > 100 µM | [12] > 100 µM | [19] > 100 µM | [14] 10 µM

COC(Cc1cc(C(O)(c2ccc(C(C)(C)C)cc2)c2cc(CC(OC)(c3cc(C(OC)(c4ccc(C(C)(C)C)cc4)c4ccc(C(C)(C)C)cc4)c(C)cc3C)c3cc(C(OC)(c4ccc(C(C)(C)C)cc4)c4ccc(C(C)(C)C)cc4)c(C)cc3C)c(C)cc2C)c(C)cc1C)(c1cc(C(OC)(c2ccc(C(C)(C)C)cc2)c2ccc(C(C)(C)C)cc2)c(C)cc1C)c1cc(C(OC)(c2ccc(C(C)(C)C)cc2)c2ccc(C(C)(C)C)cc2)c(C)cc1C
inactive: [1] > 75 µM | [2] > 75 µM | [3] > 75 µM | [4] > 75 µM | [5] > 75 µM | [6] > 75 µM | [7] > 75 µM | [17] > 75 µM | [8] > 75 µM | [9] > 75 µM | [10] > 75 µM | [11] > 75 µM | [13] > 75 µM | [14] > 75 µM | [15] > 75 µM | [16] > 75 µM

CC(=O)/N=C1\N/C(=C\c2ccc(Cl)cc2)C(=O)N1/C=C1\C(=O)Oc2ccccc2C1=O
inactive: [1] > 100 µM | [2] > 100 µM | [3] 77.8 µM | [4] > 100 µM | [5] > 100 µM | [6] 67.3 µM | [17] > 100 µM | [8] > 100 µM | [9] > 100 µM | [10] > 100 µM | [11] > 100 µM | [12] > 100 µM | [13] > 100 µM | [14] 61.1 µM | [15] > 100 µM | [16] > 100 µM

Cc1cc(C)c(S(=O)(=O)N(CCCCCN)OCCCN)c(C)c1
inactive: [1] 16.7 µM | [2] 16.8 µM | [3] 17.5 µM | [4] 20.7 µM | [6] 17 µM | [7] 14.1 µM | [17] 16.9 µM | [8] 17.9 µM | [9] 13.9 µM | [10] 11.9 µM | [11] 17.1 µM | [12] 19 µM | [13] 17.1 µM | [14] 18.3 µM | [15] 14.7 µM | [16] 20.6 µM

COc1ccc(N2C(Cl)C(=O)C2c2c[nH]c3ccccc23)cc1 (stereo unspecified)
inactive: [2] > 100 µM | [3] > 100 µM | [4] > 100 µM | [5] > 100 µM | [6] 94.8 µM | [7] 51.9 µM | [17] > 100 µM | [18] > 100 µM | [8] > 100 µM | [9] > 100 µM | [10] > 100 µM | [11] > 100 µM | [20] > 100 µM | [12] > 100 µM | [14] > 100 µM

OC(c1ccc(-c2ccccc2)cc1)(c1ccc(-c2ccccc2)cc1)c1ccc(-c2ccccc2)cc1
inactive: [1] > 100 µM | [2] > 100 µM | [3] > 100 µM | [4] > 10 µM | [5] > 100 µM | [6] > 100 µM | [7] > 100 µM | [17] > 100 µM | [8] > 100 µM | [9] > 100 µM | [11] > 100 µM | [12] > 100 µM | [13] > 100 µM | [14] > 100 µM | [15] > 100 µM | [16] > 100 µM

Cc1ccc([N+](=O)[O-])cc1S(=O)(=O)Nc1ccc(C2=NNC(c3ccccc3O)C2)cc1 (stereo unspecified)
inactive: [1] 28.6 µM | [2] 25.7 µM | [3] 13.5 µM | [4] 16.6 µM | [5] 25.1 µM | [6] 24.5 µM | [7] 17.9 µM | [17] 26.9 µM | [8] 21.9 µM | [9] 40.7 µM | [10] 40.8 µM | [11] 25.9 µM | [12] 21.6 µM | [13] 23.1 µM | [15] 29.4 µM | [16] 17.3 µM

Cc1ccc(NP(=O)(Oc2ccccc2)N(CCCl)CCCl)cc1 (stereo unspecified)
inactive: [3] 54.6 µM | [5] > 100 µM | [6] > 100 µM | [7] 76.4 µM | [17] > 100 µM | [18] 76.7 µM | [8] 21.2 µM | [9] 90.8 µM | [10] > 100 µM | [11] 28.6 µM | [12] 91 µM | [19] > 100 µM | [14] > 100 µM

O=C1OC2(CC1C1(O)C3CC4CC(C3)CC1C4)C1CC3CC(C1)CC2C3 (stereo unspecified)
inactive: [2] 32.1 µM | [3] 44.6 µM | [4] 85.1 µM | [6] > 100 µM | [7] > 100 µM | [17] > 100 µM | [8] 49.7 µM | [9] 77.6 µM | [10] > 100 µM | [11] > 100 µM | [20] 9.77 µM | [12] > 100 µM | [19] > 100 µM

O=c1c2c(nc3[nH]ccn13)CCCC2
inactive: [2] > 10 µM | [3] > 10 µM | [4] > 10 µM | [5] > 10 µM | [7] > 10 µM | [17] > 10 µM | [8] > 10 µM | [9] > 10 µM | [10] > 10 µM | [12] > 10 µM | [13] > 10 µM | [14] > 10 µM | [15] > 10 µM | [16] > 10 µM

O=c1c(C(c2ccccc2)c2c(O)oc3cc(O)ccc3c2=O)c(O)oc2cc(O)ccc12
inactive: [1] > 100 µM | [2] > 100 µM | [3] > 100 µM | [4] > 100 µM | [5] > 100 µM | [6] > 100 µM | [7] > 100 µM | [17] > 100 µM | [8] > 100 µM | [9] > 100 µM | [10] > 100 µM | [11] > 100 µM | [13] > 100 µM | [14] > 100 µM | [15] > 100 µM | [16] > 100 µM
